According to patent US10519111B2, “UV absorbing compounds, compositions comprising same and uses thereof” (CORAL SUNSCREEN PTY LTD, priority 2013, dated 2019):
Each block holds one molecule with its values, some of them ahead of it.

Key:
Assay type in all cases: physicochemical
[1] = UV absorption properties (λmax, molar extinction coefficient ε, efficiency E 1%, 1 cm)
[2] = Critical wavelength (λcrit), approximate in-house measurement
From the text: As the precise test for critical wavelength was unable to be replicated exactly by the inventors due to the need for specialist equipment and a specific calibration of the spectrophotometer, these values are only approximate to a degree. […] This represents a highly useful result and so, compounds based around this benzoyl substitution pattern shown, are especially preferred.

Photostability = conditions: Table 13B
[3] = Table 13B, miscellaneous compounds
[4] = Table 13B, values in order of the λmax values
[5] = Table 13B, values in order of the λmax values, in M-1 cm-1
[6] = Table 7, values in order of the λmax values
[7] = Table 3, compounds from isocyanates or isothiocyanates
[8] = Table 10, bis and mono enamine compounds
[9] = Table 12, 2-substituted compounds
[10] = Table 9, C3-trifluoroacetylated N-aryl enamines

λmax [1, 3]: 312 nm
E (1%, 1 cm) [1, 4]: 1162
ε [1, 5]: 35700
λcrit ([2]; Table 13B): 331 nm
Photostability (%) (Photostability): 85%
Structure (SMILES): CC1(C)CCN(C(C)(C)C)C=C1C(=O)c1c(F)cccc1F

λmax [1, 3]: 315 nm
E (1%, 1 cm) [1, 4]: 782
ε [1, 5]: 26531
λcrit ([2]; Table 13B): 349 nm
Photostability (%) (Photostability): 76%
Structure (SMILES): CC1(C)CCN(C(C)(C)C)C=C1C(=O)c1ccc(C(F)(F)F)cc1

λmax ([1]; Table 7, unsaturated compounds): 369 nm
E (1%, 1 cm) [1, 6]: 463
ε [1, 6]: 17000 M⁻¹ cm⁻¹
λcrit ([2]; Table 7): 388 nm
Structure (SMILES): CC(C)CN1C=C(C(=O)/C=C/c2ccc(C(F)(F)F)cc2)C(C)(C)CC1 [drawing 113]

λmax [1, 3]: 326 nm
E (1%, 1 cm) [1, 4]: 567
ε [1, 5]: 46937
λcrit ([2]; Table 13B): 352 nm
Structure (SMILES): CC1(C)CCN(c2ccc(C(C)(C)C)cc2)C=C1C(=O)N(Cc1ccc(CN(C(=O)C2=CN(c3ccc(C(C)(C)C)cc3)CCC2(C)C)c2ccccc2)cc1)c1ccccc1

λmax [1, 3]: 402 nm
E (1%, 1 cm) [1, 4]: 559
ε [1, 5]: 32220
λcrit ([2]; Table 13B): 391 nm
Structure (SMILES): COc1cc(/C=C/C(=O)C2=CN(C(C)(C)C)CCC2(C)C)c(OC)cc1/C=C/C(=O)C1=CN(C(C)(C)C)CCC1(C)C

λmax ([1]; Table 5, acylation of N-t-Bu enamine): 307 nm
Ε (1%, 1 cm) ([1]; Table 5, values in order of the λmax values): 1095
ε ([1]; Table 5, values in order of the λmax values, in M-1 cm-1): 54797
λcrit ([2]; Table 5): 322 nm
Structure (SMILES): CC1(C)CCN(C(C)(C)C)C=C1C(=O)CCCCCCCCC(=O)C1=CN(C(C)(C)C)CCC1(C)C [drawing 72]

λmax [1, 3]: 326 nm
E (1%, 1 cm) [1, 4]: 859
ε [1, 5]: 50670
λcrit ([2]; Table 13B): 378 nm
Structure (SMILES): Cc1cc(-c2ccc(N3C=C(C(=O)C(F)(F)F)C(C)(C)CC3)c(C)c2)ccc1N1C=CC(C)(C)C(C(=O)C(F)(F)F)=C1

λmax [1, 3]: 334 nm
E (1%, 1 cm) [1, 4]: 1121
ε [1, 5]: 58063
λcrit ([2]; Table 13B): 353 nm
Structure (SMILES): CCC(=O)C1=CN(c2ccc(Oc3ccc(N4C=C(C(=O)CC)C(C)(C)CC4)cc3)cc2)CCC1(C)C

λmax [1, 3]: 359 nm
E (1%, 1 cm) [1, 4]: 898
ε [1, 5]: 54278
λcrit ([2]; Table 13B): 378 nm
Structure (SMILES): CCCCCCCCCC(=O)C1=CN(c2ccc(N3C=C(C(=O)CCCCCCCCC)C(C)(C)CC3)cc2)CCC1(C)C

λmax [1, 3]: 358 nm
E (1%, 1 cm) [1, 4]: 820
ε [1, 5]: 47560
λcrit ([2]; Table 13B): 377 nm
Structure (SMILES): CCCOC(=O)CCC(=O)C1=CN(c2ccc(N3C=C(C(=O)CCC(=O)OCCC)C(C)(C)CC3)cc2)CCC1(C)C

Ε (1%, 1 cm) ([1]; Table 3): 1129
λmax [1, 7]: 313 nm
ε ([1]; Table 3, in M-1 cm-1): 55779
λcrit ([2]; Table 3): 328 nm
Structure (SMILES): CC1(C)CCN(C(C)(C)C)C=C1C(=O)Nc1cccc(NC(=O)C2=CN(C(C)(C)C)CCC2(C)C)c1 [drawing 66]

λcrit ([2]; Table 13B): 364 nm
Photostability (%) (Photostability): 22%
Structure (SMILES): CN1C=C(C(=O)c2ccc(N(C)CCCCCCN(C)c3ccc(C(=O)C4=CN(C(C)(C)C)CCC4(C)C)cc3)cc2)C(C)(C)CC1

λmax [1, 3]: 386 nm
E (1%, 1 cm) [1, 4]: 705
ε [1, 5]: 36404
λcrit ([2]; Table 13B): 390 nm
Structure (SMILES): CC1(C)CCN(C(C)(C)C)C=C1C(=O)/C=C/c1ccc(/C=C/C(=O)C2=CN(C(C)(C)C)CCC2(C)C)cc1

E (1%, 1 cm) ([1]; Table 10): 335
λmax [1, 8]: 253 nm
ε ([1]; Table 10, in M-1 cm-1): 10016
shoulder in the λmax column ([1]; Tables 5, 10, 13B): 315 nm
λcrit ([2]; Table 10): 363 nm
Structure (SMILES): Cc1nn(C)c(N2C=CC(C)(C)C=C2)c1C(=O)C(F)(F)F [drawing 153]

λmax [1, 3]: 383 nm
E (1%, 1 cm) [1, 4]: 525
ε [1, 5]: 30128
λcrit ([2]; Table 13B): 389 nm
Structure (SMILES): COC(=O)c1cc(/C=C/C(=O)C2=CN(C(C)(C)C)CCC2(C)C)ccc1/C=C/C(=O)C1=CN(C(C)(C)C)CCC1(C)C

E (1%, 1 cm) ([1]; Table 12): 268
ε ([1]; Table 12): 8000 M⁻¹ cm⁻¹
λmax [1, 9]: 338 nm
λcrit ([2]; Table 12): 365 nm
Structure (SMILES): CCC(=O)C1=C(c2ccccc2)N(CC(C)C)CCC1(C)C [drawing 163]

E (1%, 1 cm) ([1]; Table 9): 774
λmax [1, 10]: 339 nm
ε ([1]; Table 9, in M-1 cm-1): 24235
λcrit ([2]; Table 9): 365 nm
Structure (SMILES): COc1ccc(N2C=C(C(=O)C(F)(F)F)C(C)(C)CC2)cc1 [drawing 140]

λmax [1, 3]: 391 nm
E (1%, 1 cm) [1, 4]: 369
ε [1, 5]: 24359
λcrit ([2]; Table 13B): 388 nm
Structure (SMILES): CC1(C)CCN(C(C)(C)C)C=C1C(=O)/C=C/c1ccc(/C=C/C(=O)C2=CN(C(C)(C)C)CCC2(C)C)c([N+](=O)[O-])c1

E (1%, 1 cm) ([1]; Table 6B): 549
λmax ([1]; Table 6B, N-tert-butyl compounds): 317 nm
ε ([1]; Table 6B, in M-1 cm-1): 17300
λcrit ([2]; Table 6B): 353 nm
Structure (SMILES): CC1(C)CCN(C(C)(C)C)C=C1C(=O)c1ccc(C(=O)O)cc1 [drawing 98]

Ε (1%, 1 cm) ([1]; Table 3): 799
λmax [1, 7]: 288 nm
ε ([1]; Table 3, in M-1 cm-1): 22531
λcrit ([2]; Table 3): 312 nm
Structure (SMILES): CCCCNC(=O)C1=CN(C(C)(C)C)CCC1(C)C [drawing 61]

E (1%, 1 cm) ([1]; Table 11): 407
λmax ([1]; Table 11, compounds from mixed anhydrides): 337 nm
ε ([1]; Table 11, in M-1 cm-1): 17793
λcrit ([2]; Table 11): 356 nm
Structure (SMILES): CC1(C)CCN(c2ccc(C(C)(C)C)cc2)C=C1C(=O)C(c1ccccc1)c1ccccc1 [drawing 157]

E (1%, 1 cm) ([1]; Table 10): 505
λmax [1, 8]: 388 nm
ε ([1]; Table 10, in M-1 cm-1): 14911
λcrit ([2]; Table 10): 393 nm
Structure (SMILES): Cc1ccc(N2C=CC(C)(C)C(C(=O)C(F)(F)F)=C2)cc1 [drawing 151]

λmax [1, 3]: 359 nm
E (1%, 1 cm) [1, 4]: 447
ε [1, 5]: 37068
λcrit ([2]; Table 13B): 379 nm
Structure (SMILES): CCCCCCCCCCCCCCCCCC(=O)C1=CN(c2ccc(N3C=C(C(=O)CCCCCCCCCCCCCCCCC)C(C)(C)CC3)cc2)CCC1(C)C

E (1%, 1 cm) ([1]; Table 8b): 938
λmax ([1]; Table 8b, N-phenyl compounds): 332 nm
ε ([1]; Table 8b, in M-1 cm-1): 30675
λcrit ([2]; Table 8b): 358 nm
Structure (SMILES): COc1ccc(N2C=C(C(=O)C3CCCC3=O)C(C)(C)CC2)cc1 (stereo not shown) [drawing 130]

λmax ([1]; Table 7, unsaturated compounds): 364 nm
E (1%, 1 cm) [1, 6]: 493
ε [1, 6]: 16150 M⁻¹ cm⁻¹
λcrit ([2]; Table 7): 386 nm
Structure (SMILES): COc1ccc(/C=C/C(=O)C2=CN(CC(C)C)CCC2(C)C)cc1 [drawing 114]

λmax [1, 3]: 374 nm
E (1%, 1 cm) [1, 4]: 434
ε [1, 5]: 19194
λcrit ([2]; Table 13B): 385 nm
Structure (SMILES): CC(C)(C)CC(C)(C)N1C=C(C(=O)/C=C/c2ccc(/C=C/C(=O)Cl)cc2)C(C)(C)CC1

E (1%, 1 cm) ([1]; Table 9): 1465
λmax [1, 10]: 337 nm
ε ([1]; Table 9, in M-1 cm-1): 43513
λcrit ([2]; Table 9): 361 nm
Structure (SMILES): Cc1ccc(N2C=C(C(=O)C(F)(F)F)C(C)(C)CC2)cc1 [drawing 142]

E (1%, 1 cm) ([1]; Table 8a): 794
ε ([1]; Table 8a): 21500 M⁻¹ cm⁻¹
λmax ([1]; Table 8a, N-phenyl compounds): 350 nm
λcrit ([2]; Table 8a): 379 nm
Structure (SMILES): C=CC(=O)C1=CN(c2ccc(OC)cc2)CCC1(C)C [drawing 128]

E (1%, 1 cm) ([1]; Table 10): 1601
λmax [1, 8]: 283 nm
ε ([1]; Table 10, in M-1 cm-1): 31871
λcrit ([2]; Table 10): 317 nm
Structure (SMILES): Cc1ccc(N2C=CC(C)(C)C=C2)cc1

Ε (1%, 1 cm) ([1]; Table 3): 950
λmax [1, 7]: 304 nm
ε ([1]; Table 3, in M-1 cm-1): 34588
λcrit ([2]; Table 3): 319 nm
Structure (SMILES): Cc1ccc(S(=O)(=O)NC(=O)C2=CN(C(C)(C)C)CCC2(C)C)cc1 [drawing 64]

Ε (1%, 1 cm) ([1]; Table 4): 1060
λmax ([1]; Table 4, N-aryl enamines with isocyanates): 323 nm
ε ([1]; Table 4, in M-1 cm-1): 33948
λcrit ([2]; Table 4): 342 nm
Structure (SMILES): Cc1ccc(N2C=C(C(=O)Nc3ccccc3)C(C)(C)CC2)cc1 [drawing 69]

E (1%, 1 cm) ([1]; Table 8a): 874
ε ([1]; Table 8a): 21000 M⁻¹ cm⁻¹
λmax ([1]; Table 8a, N-phenyl compounds): 346 nm
λcrit ([2]; Table 8a): 373 nm
Structure (SMILES): C=CC(=O)C1=CN(c2ccccc2)CCC1(C)C [drawing 123]

E (1%, 1 cm) ([1]; Table 12): 683
ε ([1]; Table 12): 20000 M⁻¹ cm⁻¹
λmax [1, 9]: 323 nm
λcrit ([2]; Table 12): 344 nm
Structure (SMILES): CCC(=O)O/C(=C\C1=CC(C)(C)CCN1CC(C)C)CC [drawing 165]
